Experiment [1] concerns the target T1, Tyrosine-protein kinase receptor TYRO3 (Homo sapiens) (UniProt Q06418).
T1 sequence (whole entry): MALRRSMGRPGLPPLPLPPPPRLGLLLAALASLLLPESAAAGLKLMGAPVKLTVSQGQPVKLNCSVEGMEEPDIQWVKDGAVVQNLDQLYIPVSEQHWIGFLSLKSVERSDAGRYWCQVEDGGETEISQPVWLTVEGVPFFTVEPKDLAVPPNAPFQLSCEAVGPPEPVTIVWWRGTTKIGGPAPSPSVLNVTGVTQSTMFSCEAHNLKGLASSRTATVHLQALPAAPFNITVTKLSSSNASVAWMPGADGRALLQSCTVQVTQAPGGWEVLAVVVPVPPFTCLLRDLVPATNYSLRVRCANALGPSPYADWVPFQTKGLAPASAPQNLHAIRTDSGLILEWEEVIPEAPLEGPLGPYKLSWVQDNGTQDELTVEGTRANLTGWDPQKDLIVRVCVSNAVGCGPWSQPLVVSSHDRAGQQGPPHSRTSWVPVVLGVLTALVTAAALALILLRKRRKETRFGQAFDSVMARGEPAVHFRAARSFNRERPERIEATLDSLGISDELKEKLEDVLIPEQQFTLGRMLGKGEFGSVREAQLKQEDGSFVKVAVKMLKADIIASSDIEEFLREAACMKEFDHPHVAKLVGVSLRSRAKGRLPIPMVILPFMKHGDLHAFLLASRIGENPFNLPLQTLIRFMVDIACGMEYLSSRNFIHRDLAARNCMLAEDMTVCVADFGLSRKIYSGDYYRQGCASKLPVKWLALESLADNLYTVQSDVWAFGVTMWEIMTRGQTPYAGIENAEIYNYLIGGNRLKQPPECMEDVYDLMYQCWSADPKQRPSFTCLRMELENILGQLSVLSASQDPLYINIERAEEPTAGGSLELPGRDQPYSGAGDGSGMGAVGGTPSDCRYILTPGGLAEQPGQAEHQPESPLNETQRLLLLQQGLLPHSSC
The experiment can be described thus: Inhibition of TYRO3 (unknown origin) at 0.5 uM relative to control.

Experiment [2] addresses T2, Muscle, skeletal receptor tyrosine-protein kinase (Homo sapiens) (UniProt O15146).
T2 sequence (whole entry): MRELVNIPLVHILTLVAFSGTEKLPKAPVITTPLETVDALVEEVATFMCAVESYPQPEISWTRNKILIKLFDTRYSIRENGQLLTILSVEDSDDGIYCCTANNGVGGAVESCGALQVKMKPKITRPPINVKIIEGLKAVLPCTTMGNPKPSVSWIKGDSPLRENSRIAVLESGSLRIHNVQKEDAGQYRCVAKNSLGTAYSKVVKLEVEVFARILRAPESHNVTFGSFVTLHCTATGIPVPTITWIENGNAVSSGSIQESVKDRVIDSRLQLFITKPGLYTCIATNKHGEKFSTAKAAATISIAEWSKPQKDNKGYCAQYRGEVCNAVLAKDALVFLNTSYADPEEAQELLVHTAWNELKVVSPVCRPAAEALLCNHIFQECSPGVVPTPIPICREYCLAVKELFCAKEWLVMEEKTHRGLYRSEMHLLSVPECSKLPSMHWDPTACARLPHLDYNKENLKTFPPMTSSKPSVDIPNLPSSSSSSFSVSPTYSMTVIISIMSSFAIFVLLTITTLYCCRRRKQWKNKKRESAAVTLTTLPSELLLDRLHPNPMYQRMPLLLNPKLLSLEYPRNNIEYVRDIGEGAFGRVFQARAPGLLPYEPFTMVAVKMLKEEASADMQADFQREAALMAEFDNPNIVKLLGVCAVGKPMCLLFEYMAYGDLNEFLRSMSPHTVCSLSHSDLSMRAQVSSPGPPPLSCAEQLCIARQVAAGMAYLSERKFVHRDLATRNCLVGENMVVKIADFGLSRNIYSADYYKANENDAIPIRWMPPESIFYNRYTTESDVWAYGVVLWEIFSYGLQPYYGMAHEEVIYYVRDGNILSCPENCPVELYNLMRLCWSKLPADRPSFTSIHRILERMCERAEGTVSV
The experiment in a line: Inhibition of MUSK (unknown origin) at 0.5 uM relative to control.

The target in experiment [3] is NT-3 growth factor receptor (Homo sapiens) (UniProt Q16288). The experiment in a line: Inhibition of TRKC (unknown origin) at 0.5 uM relative to control.
Experiment [4] deals with Receptor-type tyrosine-protein kinase FLT3 (Homo sapiens) (UniProt P36888). The experiment in a line: Inhibition of FLT3 (unknown origin) at 0.5 uM relative to control.
For experiment [5], the target named is Tyrosine-protein kinase Lck (Homo sapiens) (UniProt P06239). The experiment can be described thus: Inhibition of LCK (unknown origin) at 0.5 uM relative to control.
The target in experiment [6] is T3, Ephrin type-B receptor 2 (Homo sapiens) (UniProt P29323).
T3 sequence (whole entry): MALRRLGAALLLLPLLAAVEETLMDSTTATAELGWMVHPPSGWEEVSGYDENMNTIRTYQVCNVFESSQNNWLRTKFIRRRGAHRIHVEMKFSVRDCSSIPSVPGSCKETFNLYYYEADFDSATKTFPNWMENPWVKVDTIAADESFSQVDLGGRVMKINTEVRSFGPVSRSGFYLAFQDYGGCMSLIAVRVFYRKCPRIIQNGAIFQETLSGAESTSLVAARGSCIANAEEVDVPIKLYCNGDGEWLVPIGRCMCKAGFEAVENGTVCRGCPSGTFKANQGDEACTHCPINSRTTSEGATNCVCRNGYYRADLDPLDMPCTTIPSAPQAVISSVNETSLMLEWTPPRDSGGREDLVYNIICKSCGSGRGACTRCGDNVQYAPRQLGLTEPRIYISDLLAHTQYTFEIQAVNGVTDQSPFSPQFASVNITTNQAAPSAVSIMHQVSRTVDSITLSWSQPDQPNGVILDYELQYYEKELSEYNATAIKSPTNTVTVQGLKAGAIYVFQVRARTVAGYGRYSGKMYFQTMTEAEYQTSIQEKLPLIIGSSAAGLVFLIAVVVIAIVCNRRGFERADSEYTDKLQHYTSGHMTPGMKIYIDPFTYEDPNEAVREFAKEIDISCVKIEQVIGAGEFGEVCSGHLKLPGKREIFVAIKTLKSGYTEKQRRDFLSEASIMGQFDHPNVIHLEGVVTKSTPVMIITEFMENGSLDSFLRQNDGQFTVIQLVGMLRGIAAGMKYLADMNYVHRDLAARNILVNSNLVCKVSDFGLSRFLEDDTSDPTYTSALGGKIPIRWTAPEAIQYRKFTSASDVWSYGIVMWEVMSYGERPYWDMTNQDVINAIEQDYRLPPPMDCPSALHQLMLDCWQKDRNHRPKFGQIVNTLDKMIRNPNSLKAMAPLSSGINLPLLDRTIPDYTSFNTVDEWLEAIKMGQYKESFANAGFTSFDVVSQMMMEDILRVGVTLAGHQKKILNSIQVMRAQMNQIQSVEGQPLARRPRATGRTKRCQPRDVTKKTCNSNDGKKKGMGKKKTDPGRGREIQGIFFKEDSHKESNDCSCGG
The experiment in a line: Inhibition of EPHB2 (unknown origin) at 0.5 uM relative to control.

As usually defined, the inhibition is the percentage by which the read-out fell short of the control. High values mean a response far below the control, low ones a response near the control.

Tyrosine-protein kinase Lck (Homo sapiens), sequence (P06239 2-509 limits assumed): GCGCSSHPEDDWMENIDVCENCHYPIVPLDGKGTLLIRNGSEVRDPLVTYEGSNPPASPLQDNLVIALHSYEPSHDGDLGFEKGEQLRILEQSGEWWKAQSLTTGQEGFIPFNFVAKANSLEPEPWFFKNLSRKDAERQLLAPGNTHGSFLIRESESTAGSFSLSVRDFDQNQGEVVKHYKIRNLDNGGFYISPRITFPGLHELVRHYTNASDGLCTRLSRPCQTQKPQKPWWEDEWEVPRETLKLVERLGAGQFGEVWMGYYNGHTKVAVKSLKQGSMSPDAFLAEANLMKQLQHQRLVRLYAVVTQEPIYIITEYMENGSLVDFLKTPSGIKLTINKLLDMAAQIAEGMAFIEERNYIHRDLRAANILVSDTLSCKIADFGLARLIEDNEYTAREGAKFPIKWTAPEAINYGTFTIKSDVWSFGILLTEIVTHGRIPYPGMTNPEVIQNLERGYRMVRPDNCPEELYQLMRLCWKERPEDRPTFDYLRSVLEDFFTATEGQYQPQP
NT-3 growth factor receptor (Homo sapiens), sequence (Q16288 32-839 limits assumed): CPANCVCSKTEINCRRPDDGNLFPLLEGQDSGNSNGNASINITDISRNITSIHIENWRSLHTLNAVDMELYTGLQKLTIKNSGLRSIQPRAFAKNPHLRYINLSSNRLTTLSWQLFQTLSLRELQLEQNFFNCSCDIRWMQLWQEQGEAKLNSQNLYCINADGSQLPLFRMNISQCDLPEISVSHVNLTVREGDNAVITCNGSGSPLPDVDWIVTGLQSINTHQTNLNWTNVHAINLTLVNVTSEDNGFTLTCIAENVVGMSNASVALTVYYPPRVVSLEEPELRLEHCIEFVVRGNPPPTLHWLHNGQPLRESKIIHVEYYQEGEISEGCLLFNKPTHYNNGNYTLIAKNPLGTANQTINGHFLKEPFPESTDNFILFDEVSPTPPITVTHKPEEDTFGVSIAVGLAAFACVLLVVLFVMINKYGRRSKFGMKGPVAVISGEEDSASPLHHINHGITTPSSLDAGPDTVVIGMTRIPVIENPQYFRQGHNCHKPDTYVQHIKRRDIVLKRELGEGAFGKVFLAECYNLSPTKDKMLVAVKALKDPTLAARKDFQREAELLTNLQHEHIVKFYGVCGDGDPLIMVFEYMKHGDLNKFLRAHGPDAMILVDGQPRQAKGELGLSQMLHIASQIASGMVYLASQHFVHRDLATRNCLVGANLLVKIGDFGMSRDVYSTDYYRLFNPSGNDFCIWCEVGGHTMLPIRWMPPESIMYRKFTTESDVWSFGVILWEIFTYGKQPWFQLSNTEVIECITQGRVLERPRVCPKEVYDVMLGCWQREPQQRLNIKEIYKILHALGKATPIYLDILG
Receptor-type tyrosine-protein kinase FLT3 (Homo sapiens), sequence (P36888 whole entry): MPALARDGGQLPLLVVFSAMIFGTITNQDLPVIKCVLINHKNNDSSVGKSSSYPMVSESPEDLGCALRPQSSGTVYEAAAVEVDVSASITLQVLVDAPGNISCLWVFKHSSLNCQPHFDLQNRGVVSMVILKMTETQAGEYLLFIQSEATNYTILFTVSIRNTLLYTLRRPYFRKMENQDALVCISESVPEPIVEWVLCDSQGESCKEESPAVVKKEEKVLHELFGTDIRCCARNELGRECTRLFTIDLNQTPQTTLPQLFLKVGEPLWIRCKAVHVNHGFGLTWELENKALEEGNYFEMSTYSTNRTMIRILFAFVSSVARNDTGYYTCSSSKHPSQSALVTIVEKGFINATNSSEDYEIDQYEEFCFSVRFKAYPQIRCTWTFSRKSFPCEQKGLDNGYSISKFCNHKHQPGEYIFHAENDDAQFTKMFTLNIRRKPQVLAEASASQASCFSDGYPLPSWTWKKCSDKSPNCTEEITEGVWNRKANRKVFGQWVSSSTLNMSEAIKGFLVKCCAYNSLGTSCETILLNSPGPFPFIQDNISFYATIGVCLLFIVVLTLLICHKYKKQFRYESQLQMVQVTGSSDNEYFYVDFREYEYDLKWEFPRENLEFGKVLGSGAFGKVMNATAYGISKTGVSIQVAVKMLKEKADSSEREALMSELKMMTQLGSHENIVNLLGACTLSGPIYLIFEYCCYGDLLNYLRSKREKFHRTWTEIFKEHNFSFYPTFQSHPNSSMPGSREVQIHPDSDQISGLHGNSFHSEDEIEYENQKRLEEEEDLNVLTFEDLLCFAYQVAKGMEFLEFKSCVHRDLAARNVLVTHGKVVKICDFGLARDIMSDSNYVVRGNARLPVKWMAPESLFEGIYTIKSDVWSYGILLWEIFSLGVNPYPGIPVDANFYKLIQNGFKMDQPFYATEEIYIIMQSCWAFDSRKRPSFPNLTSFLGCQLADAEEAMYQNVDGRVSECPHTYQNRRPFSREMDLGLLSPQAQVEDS

As for `CNC(=O)c1cc(Oc2ccc(NC(=O)c3nc(SC)n(CCN(C)C)c3-c3ccc(F)cc3)cc2)ccn1`, the inhibition came out at 52% in experiment [1]; 29% in experiment [2]; 57% in experiment [3]; 50% in experiment [4]; 28% in experiment [5].
Take `CNC(=O)c1cc(Oc2ccc(NC(=O)c3nc(S(C)(=O)=O)sc3-c3ccc(F)cc3)cc2)ccn1`: the inhibition was determined as 70% in experiment [1]; 27% in experiment [6]; 70% in experiment [2]; 25% in experiment [3]; 56% in experiment [4].
Regarding `CNC(=O)c1cc(Oc2ccc(NC(=O)c3nc(SC)oc3-c3ccc(F)cc3)cc2F)ccn1`, the inhibition worked out at 70% in experiment [1]; 39% in experiment [6]; 46% in experiment [3]; 36% in experiment [4]; 71% in experiment [5].
For the compound `CNC(=O)c1cc(Oc2ccc(NC(=O)c3nc(C(F)(F)F)sc3-c3ccc(F)cc3)cc2)ccn1`, the inhibition worked out at 65% in experiment [1], 34% in experiment [2], 39% in experiment [4] and 58% in experiment [5].
Regarding `CSc1nc(C(=O)Nc2ccc(Oc3cc4cnn(C)c4cc3Br)cc2)c(-c2ccc(F)cc2)o1`, the inhibition in experiment [4] amounted to 27%.
Regarding `CNC(=O)c1cc(Oc2ccc(NC(=O)c3nc(SC)[nH]c3-c3ccc(F)cc3)cc2)ccn1`, the inhibition in experiment [1] was determined as 87%; in experiment [6], 93%; in experiment [2], 97%; in experiment [3], 90%; in experiment [5], 84%.
Turning to `CNC(=O)c1cc(Oc2ccc(NC(=O)c3n[nH]nc3-c3ccc(F)cc3)cc2)ccn1`, the inhibition in experiment [6] turned out to be 35%; in experiment [2], 25%; in experiment [3] it was 55%; in experiment [4], 44%.
Regarding `CNC(=O)c1cc(Oc2ccc(NC(=O)c3nc(NC)sc3-c3ccc(F)cc3)cc2)ccn1`, the inhibition in experiment [1] is 59%; in experiment [6], 51%; in experiment [2] it was 51%; in experiment [3], 76%; in experiment [5], 49%.
With `CNC(=O)c1cc(Oc2ccc(NC(=O)c3nc(SC)oc3-c3ccc(F)cc3)cc2)ccn1`, the inhibition is 82% in experiment [1], 48% in experiment [6], 51% in experiment [3] and 77% in experiment [5].

For the origin of these results see ChEMBL document CHEMBL4806968, “Hipk inhibitors and methods of use thereof” (2020).
